Data reported in patent US20130129686A1, “Reducing Inflammation Using Cell Therapy” (Regents of the University, priority 2009, published 2013).
Entries after “also recorded” stand apart in the source; their conditions may differ.

Experiments:
[1] = system: allogeneic T cell proliferation; assay: Mixed leukocyte reaction (MLR), 3H-thymidine uptake; type: cell-based, mouse
From the text: Lymph nodes (LNs) were harvested from B6 mice and T-cells were purified using by negative selection using PE-conjugated anti-CD19, anti-CD11c, anti-NK1.1 and anti-PE magnetic beads (Miltenyi Biotech). Purity was routinely >95%. Spleens were harvested from BALB/c mice, T-cell depleted (anti-Thy1.1), and irradiated (3000 cGy). B6 T-cells were mixed at a 1:1 ratio with BALB/c splenic stimulators and plated in a 96 well round bottom plate (10^5 T-cells/well) or in the lower chamber of a 24 well plate TransWell insert (10^6 T-cells/well). MAPCs were irradiated (3000 cGy) and plated in a 96 well round bottom plate (10^4/well, 1:10) or in a 24 well TransWell plate (10^5/well, 1:10). Cells were incubated in “T-cell media” in 200 μl/well (96 well) or 800 μl/well (24 well) of RPMI 1640 (Invitrogen, Carlsbad, Calif.) supplemented with 10% FCS, […] 2-ME (Sigma-Aldrich), 10 mM HEPES buffer (Invitrogen), 1 mM sodium pyruvate (Invitrogen), amino acid supplements (1.5 mM L-glutamine, L-arginine, L-asparagine) (Sigma-Aldrich), 100 U/ml penicillin, […] streptomycin (Sigma-Aldrich). Cells were pulsed with ^3H-thymidine (1 μCi/well) 16-18 hours prior to harvesting and counted in the absence of scintillation fluid on a β-plate reader. […] Trypan blue exclusion was used to assess effects on live cells. […]

[2] = cited from earlier work
PGE2 = PGE2 quantification in MAPC culture supernatant (PGE2 assay kit); type: cell-based, mouse; conditions: overnight treatment of MAPCs, 5 μM, for the period of the MLR culture (9 days)
From the text: Lymph nodes (LNs) were harvested from B6 mice and T-cells were purified using by negative selection using PE-conjugated anti-CD19, anti-CD11c, anti-NK1.1 and anti-PE magnetic beads (Miltenyi Biotech). Purity was routinely >95%. Spleens were harvested from BALB/c mice, T-cell depleted (anti-Thy1.1), and irradiated (3000 cGy). B6 T-cells were mixed at a 1:1 ratio with BALB/c splenic stimulators and plated in a 96 well round bottom plate (10^5 T-cells/well) or in the lower chamber of a 24 well plate TransWell insert (10^6 T-cells/well). MAPCs were irradiated (3000 cGy) and plated in a 96 well round bottom plate (10^4/well, 1:10) or in a 24 well TransWell plate (10^5/well, 1:10). […] Cells were pulsed with ^3H-thymidine (1 μCi/well) 16-18 hours prior to harvesting and counted in the absence of scintillation fluid on a β-plate reader. […]
Quantitative determination of PGE2 in cell culture supernatants was performed using PGE2 assay kit (R&D Systems) by following manufacturer's instructions. Quantities of IL-10, TGF-β, IL-2, TNF-α, IFN-γ, and IL-12 were determined using Luminex technology (R&D Systems). […] The color development is stopped, and the absorbance is read at 450 nm. […]

**Q.** For `Cn1cc(C[C@@H](N)C(=O)O)c2ccccc21` [1MT, 1-methyl-D-tryptophan], which “additive effect with indomethacin pre-treatment of MAPCs” value ([1]; 200 μM 1MT in co-culture plus MAPCs pre-treated with 5 μM indomethacin) is on record?
**A.** little/no additive effect

**Q.** And the “T-cell proliferation in MLR-MAPC co-cultures with IDO inhibitor” value ([1]; 200 μM in culture media)?
**A.** did not increase T-cell proliferation; also recorded: did not affect T-cell proliferation

**Q.** Which half-life in vivo [2] does the source give for `CCCCC[C@H](O)/C=C/[C@H]1[C@H](O)CC(=O)[C@@H]1C/C=C\CCCC(=O)O` [PGE2, prostaglandin E2] here?
**A.** ~30 s

**Q.** For `COc1ccc2c(c1)c(CC(=O)O)c(C)n2C(=O)c1ccc(Cl)cc1` [indomethacin], which “upstream synthesis of PGE2 by MAPCs” value (PGE2) is on record?
**A.** potently inhibited
